Each compound was assayed against Human recombinant PRMT5 in complex with human recombinant MEP50 (Homo sapiens (Human), UniProt O14744) (assay: PRMT5/MEP50 AlphaLISA enzyme inhibitory assay). Conditions: PRMT5/MEP50 25 nM, SAM 10 μM, Biotin-H4 peptide 30 nM.
Format: biochemical
Text: Human recombinant PRMT5 in complex with human recombinant MEP50, co-expressed in an insect cell/baculovirus expression system was purchased from Reaction Biology (Malvern, Pa.). […] Anti-H4R3-Me AlphaLISA acceptor beads and Streptavidin labeled AlphaLISA donor beads were obtained from PerkinElmer (Waltham, Mass.). S-adenosylmethionine (SAM), Tween20, dimethylsulfoxide (DMSO), and Tris buffer were obtained from Sigma at the highest level of purity available.
General Procedure for PRMT5/MEP50 AlphaLISA Enzyme Inhibitory Assays: Assays were performed in the buffer consisting of 50 mM Tris, pH 8.5, 5 mM MgCl2, 50 mM NaCl with 0.01% Tween20 and 1 mM DTT added right before the assay. 2.5 μL of compound solution in the assay buffer with 4% DMSO and 5 μL of PRMT5/MRP50 complex/SAM mixture solution in the assay buffer which was pre-incubated for 30 minutes were added into a white low volume 384 well microtiter plate. This mixture solution was incubated for 15 minutes with gentle shaking at room temperature. Methyl transfer reaction was initiated by adding 2.5 μL of Biotin-H4 (1-21) peptide substrate solution in the assay buffer. Final concentrations of PRMT5/MEP50, SAM, Biotin-H4 peptide substrate, and DMSO were 25 nM, 10 μM, 30 nM, and 1%, respectively. The reaction was allowed to perform for 120 minutes in dark with gentle shaking at room temperature after which 5 μL of Anti-H4R3-Me AlphaLISA acceptor beads in detection buffer from the manufacturer was added into the reaction mixture followed by incubation for 60 minutes. 10 μL of Streptavidin labeled AlphaLISA donor beads in detection buffer was added into the mixture followed by 30 minute incubation. Final acceptor and donor beads concentrations were 10 μg/mL. Plates were read on an Envision multimode plate reader from PerkinElmer (Waltham Mass., USA) with an excitation wavelength of 680 nm and emission wavelength of 615 nm. IC50 values of inhibitors were obtained by fitting the fluorescence intensity vs inhibitor concentrations in a sigmoidal dose-response curve (variable slopes, four parameters) using Prism 7 (La Jolla, Calif.).

Human recombinant PRMT5 in complex with human recombinant MEP50, sequence (O14744 whole entry): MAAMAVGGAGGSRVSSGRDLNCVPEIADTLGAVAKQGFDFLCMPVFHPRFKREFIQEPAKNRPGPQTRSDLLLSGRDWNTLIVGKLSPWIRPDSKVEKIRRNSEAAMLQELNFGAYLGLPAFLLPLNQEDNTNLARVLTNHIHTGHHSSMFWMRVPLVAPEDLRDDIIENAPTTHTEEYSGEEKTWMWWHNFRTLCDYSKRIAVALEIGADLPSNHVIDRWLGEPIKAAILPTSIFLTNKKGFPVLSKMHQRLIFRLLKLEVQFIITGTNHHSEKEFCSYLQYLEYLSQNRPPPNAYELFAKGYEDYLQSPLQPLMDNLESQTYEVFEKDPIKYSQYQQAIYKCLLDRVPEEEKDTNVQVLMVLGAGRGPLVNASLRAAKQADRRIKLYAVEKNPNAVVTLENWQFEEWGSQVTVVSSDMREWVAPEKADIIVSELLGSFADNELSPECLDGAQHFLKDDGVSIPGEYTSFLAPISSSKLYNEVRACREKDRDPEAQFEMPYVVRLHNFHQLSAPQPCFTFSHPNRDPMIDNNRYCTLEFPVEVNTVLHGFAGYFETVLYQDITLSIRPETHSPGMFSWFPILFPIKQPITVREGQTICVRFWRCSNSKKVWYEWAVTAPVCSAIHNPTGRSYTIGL
Human recombinant PRMT5 in complex with human recombinant MEP50, sequence (Q9BQA1 whole entry partner): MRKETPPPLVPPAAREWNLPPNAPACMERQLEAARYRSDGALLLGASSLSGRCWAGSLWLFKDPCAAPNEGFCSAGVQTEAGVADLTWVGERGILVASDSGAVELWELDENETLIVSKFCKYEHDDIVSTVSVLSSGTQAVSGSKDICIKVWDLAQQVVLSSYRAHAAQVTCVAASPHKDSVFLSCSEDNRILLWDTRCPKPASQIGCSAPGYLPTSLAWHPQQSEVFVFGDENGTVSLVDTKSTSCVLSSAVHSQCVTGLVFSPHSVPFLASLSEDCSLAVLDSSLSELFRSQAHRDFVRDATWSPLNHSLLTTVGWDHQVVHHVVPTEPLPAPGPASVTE

| SMILES | IC50 [nM] |
| --- | --- |
| Cn1cc(Nc2cc3c(cc2Cl)CCN(CC(O)CN2CCc4ccccc4C2)C3=O)cn1 (centres unmarked) [Compound 26, 6-chloro-2-(3-(3,4-dihydroisoquinolin-2(1H)-yl)-2-hydroxypropyl)-7-((1-methyl-1H-pyrazol-4-yl)amino)-3,4-dihydroisoquinolin-1(2H)-one] | 487 |
| O=C1c2cc(Nc3ccnnc3)ccc2CCN1C[C@@H](O)CN1CCc2ccccc2C1 [Compound 28b, (S)-2-(3-(3,4-dihydroisoquinolin-2(1H)-yl)-2-hydroxypropyl)-7-(pyridazin-4-ylamino)-3,4-dihydroisoquinolin-1(2H)-one] | 296 |
| Cn1cc(Nc2ccc3c(c2)C(=O)N(CC(O)CN2CCc4ccccc4C2)CCO3)cn1 (centres unmarked) [Compound 29] | 39 |
| Cn1cc(Nc2ccc3c(c2)C(=O)N(C[C@@H](O)CN2CCc4ccccc4C2)CCO3)cn1 [Compound 29b, (S)-4-(3-(3,4-dihydroisoquinolin-2(1H)-yl)-2-hydroxypropyl)-7-((1-methyl-1H-pyrazol-4-yl)amino)-3,4-dihydrobenzo[f][1,4]oxazepin-5(2H)-one] | 126 |
| O=C1c2cc(Nc3ccnnc3)ccc2OCCN1C[C@@H](O)CN1CCc2ccccc2C1 [Compound 30b, (S)-4-(3-(3,4-dihydroisoquinolin-2(1H)-yl)-2-hydroxypropyl)-7-(pyridazin-4-ylamino)-3,4-dihydrobenzo[f][1,4]oxazepin-5(2H)-one] | 36 |
| O=c1c2cc(Nc3ccnnc3)ccc2ncn1CC(O)CN1CCc2ccccc2C1 (centres unmarked) [Compound 31, 3-(3-(3,4-dihydroisoquinolin-2(1H)-yl)-2-hydroxypropyl)-6-(pyridazin-4-ylamino)quinazolin-4(3H)-one] | 179 |
| O=c1c2cc(Nc3ccnnc3)ccc2ccn1CC(O)CN1CCc2ccccc2C1 (centres unmarked) [Compound 32, 2-(3-(3,4-dihydroisoquinolin-2(1H)-yl)-2-hydroxypropyl)-7-(pyridazin-4-ylamino)isoquinolin-1(2H)-one] | 37.2 |

Stronger by IC50, values ahead:

| IC50 [nM] | SMILES |
| --- | --- |
| 21 | Cn1ccc(Nc2ccc3c(c2)C(=O)N(CC(O)CN2CCc4ccccc4C2)CC3)cc1=O (centres unmarked) [Compound 27, 2-(3-(3,4-dihydroisoquinolin-2(1H)-yl)-2-hydroxypropyl)-7-((1-methyl-2-oxo-1,2-dihydropyridin-4-yl)amino)-3,4-dihydroisoquinolin-1(2H)-one] |
| 11.4 | O=C1c2cc(Nc3ccnnc3)ccc2CCN1CC(O)CN1CCc2ccccc2C1 (centres unmarked) [Compound 28] |
| 22.4 | O=c1c2cc(Nc3ccnnc3)ccc2cnn1CC(O)CN1CCc2ccccc2C1 (centres unmarked) [Compound 33, 2-(3-(3,4-dihydroisoquinolin-2(1H)-yl)-2-hydroxypropyl)-7-(pyridazin-4-ylamino)phthalazin-1(2H)-one] |
| 15.7 | CC1(C)CN(CC(O)CN2CCc3ccccc3C2)C(=O)c2cc(Nc3ccnnc3)ccc21 (centres unmarked) [Compound 34, 2-(3-(3,4-dihydroisoquinolin-2(1H)-yl)-2-hydroxypropyl)-4,4-dimethyl-7-(pyridazin-4-ylamino)-3,4-dihydroisoquinolin-1(2H)-one] |
| 6.1 | O=C1c2cc(Nc3ccnnc3)ccc2C2(CC2)CN1CC(O)CN1CCc2ccccc2C1 (centres unmarked) [Compound 35, 2′-(3-(3,4-dihydroisoquinolin-2(1H)-yl)-2-hydroxypropyl)-7′-(pyridazin-4-ylamino)-2′,3′-dihydro-1′H-spiro[cyclopropane-1,4′-isoquinolin]-1′-one] |
| 10.3 | O=C1c2cc(Nc3cncnc3)ccc2OCCN1C[C@H](O)CN1CCc2ccccc2C1 [Compound 36, (R)-4-(3-(3,4-dihydroisoquinolin-2(1H)-yl)-2-hydroxypropyl)-7-(pyrimidin-5-ylamino)-3,4-dihydrobenzo[f][1,4]oxazepin-5(2H)-one] |
| 9.9 | O=C1c2cc(Nc3ccncn3)ccc2OCCN1C[C@H](O)CN1CCc2ccccc2C1 [Compound 37, (R)-4-(3-(3,4-dihydroisoquinolin-2(1H)-yl)-2-hydroxypropyl)-7-(pyrimidin-4-ylamino)-3,4-dihydrobenzo[f][1,4]oxazepin-5(2H)-one] |
